According to patent US20260209249A1, “NOVEL TRICYCLIC COMPOUND AS KRAS G12D INHIBITOR, AND USE THEREOF” (SK Biopharmaceuticals Co., priority 2022, published 2026):

Assays:
[1] = target: T1, GDP-KRAS G12D mutant protein (Homo sapiens, UniProt P01116, G12D); assay: Differential scanning fluorimetry (DSF) binding affinity to GDP-KRAS G12D mutant protein; settings: DSF thermal shift, 10 μM compound, 4 μg KRAS protein
T1 construct: purchased Daegu Gyeongbuk Medical Innovation Foundation (DGMIF), made to order
Description: (§1) Test Example 1: Measurement of Binding Affinity to KRAS G12D Mutant Protein The binding affinities of the compounds according to one embodiment of the present application to the KRAS G12D mutant protein were evaluated using differential scanning fluorimetry (DSF). Differential scanning fluorimetry (DSF) is a method used to study the stability of a protein upon binding to a compound. The experiment can be performed using a real-time PCR (RT-PCR) instrument, and is commonly employed as a screening technique for small-molecule compounds targeting specific proteins. As the temperature increases, folded proteins begin to unfold, during which a hydrophobic dye such as SYPRO Orange binds to the exposed hydrophobic regions of the protein, resulting in a measurable increase in fluorescence intensity (maximum absorption at 470 nm and maximum emission at 570 nm). Protein-compound binding is determined by the difference in the melting temperature (Tm) of the protein in the presence of the compound compared to the Tm in the absence of the compound, expressed as ΔTm. The binding affinity to the KRAS G12D mutant protein was measured using the Protein Thermal Shift Dye kit (#4461146, Applied Biosystems). The GDP-KRAS G12D mutant protein and GppNHp-KRAS G12D mutant protein used in the experiment were recombinant proteins synthesized by the Daegu Gyeongbuk Medical Innovation Foundation (DGMIF) upon request. The analysis of binding between the compound and the KRAS G12D mutant protein was performed according to the following reaction recipe: each test sample contained 4 μg of KRAS protein, 10 μM of the compound, and 2×SYPRO Orange dye. For the GDP-KRAS G12D protein samples, the buffer provided with the Protein Thermal Shift Dye kit was used, while for the GppNHp-KRAS G12D protein samples, 50 mM HEPES (pH 7.5) buffer was used. For the protein-compound binding reaction, the compound was added to the KRAS G12D mutant protein and reacted at room temperature for 30 minutes, followed by the addition of 2×SYPRO Orange dye. The temperature was increased to 25° C.-99° C. (0.05° C./s) using QuantStudiol RT-PCR instrument (Applied Biosystems), and fluorescence was measured using a ROX reporter with filters of 580±10 nm (excitation)/623±14 nm (emission). The measurements obtained at a compound concentration of 10 μM were analyzed using the Protein Thermal Shift Software program (version v1.4, Thermo Fisher Scientific), and the ΔTm (° C.) values, which indicate the binding affinity of the compound to the KRAS G12D mutant protein, were calculated. The DSF measurement results for the compounds according to one embodiment of the present application with respect to the KRAS G12D mutant protein are shown in Table 2.

[2] = target: T2, GppNHp-KRAS G12D mutant protein (Homo sapiens, UniProt P01116, G12D); assay: Differential scanning fluorimetry (DSF) binding affinity to GppNHp-KRAS G12D mutant protein; settings: DSF thermal shift, 10 μM compound, 4 μg KRAS protein, 50 mM HEPES (pH 7.5)
T2 construct: purchased Daegu Gyeongbuk Medical Innovation Foundation (DGMIF), made to order
Description: as §1

C#Cc1c(F)ccc2cccc(-c3c(F)c4nc(OC[C@@]56CCCN5C[C@H](F)C6)nc(N5C[C@H]6CC[C@@H](C5)N6)c4c4cn(C)nc34)c12 [Example 82, 9-((1 R,5S)-3,8-diazabicyclo[3.2.1]octan-3-yl)-4-(8-ethynyl-7-fluoronaphthalen-1-yl)-5-fluoro-7-(((2R,7aS)-2-fluorotetrahydro-1H-pyrrolizin-7a(5H)-yl)methoxy)-2-methyl-2H-pyrazolo[4,3-n]quinazoline]
GDP-KRAS G12D (ΔTmD, ° C.) [1]: 7.52 °C | GppNHp-KRAS G12D (ΔTmD, ° C.) [2]: 3.26 °C

Cn1cc2c(n1)c(-c1cc(O)cc3ccc(F)c(F)c13)cc1nc(OC[C@@]34CCCN3C/C(=C\F)C4)nc(N3C[C@H]4CC[C@@H](C3)N4)c12 [Example 84, 4-(9-((1R,5S)-3,8-diazabicyclo[3.2.1]octan-3-yl)-7-(((S,Z)-2-(fluoromethylene)tetrahydro-1H-pyrrolizin-7a(5H)-yl)methoxy)-2-methyl-2H-pyrazolo[4,3-f]quinazolin-4-yl)-5,6-difluoronaphthalen-2-ol]
GDP-KRAS G12D (ΔTmD, ° C.) [1]: 8.13 °C | GppNHp-KRAS G12D (ΔTmD, ° C.) [2]: 4.13 °C

C#Cc1c(F)ccc2cc(O)cc(-c3c(F)c4nc(OC[C@@]56CCCN5CC(=C(F)F)C6)nc(N5CC6CCC(C5)N6)c4c4cn(C)nc34)c12 [Example 91, 4-(9-((1R,5S)-3,8-diazabicyclo[3.2.1]octan-3-yl)-7-(((S)-2-(difluoromethylene)tetrahydro-1H-pyrrolizin-7a(5H)-yl)methoxy)-5-fluoro-2-methyl-2H-pyrazolo[4,3-n]quinazolin-4-yl)-5-ethynyl-6-fluoronaphthalen-2-ol]
GDP-KRAS G12D (ΔTmD, ° C.) [1]: −0.16 °C | GppNHp-KRAS G12D (ΔTmD, ° C.) [2]: −0.45 °C

C#Cc1c(F)ccc2cc(O)cc(-c3c(F)c4nc(OC[C@@]56CCCN5CC(=C(F)F)C6)nc(N5CC6CCC(C5)N6)c4c4cn(C)nc34)c12 [Example 92, 4-(9-((1R,5S)-3,8-diazabicyclo[3.2.1]octan-3-yl)-7-(((S)-2-(difluoromethylene)tetrahydro-1H-pyrrolizin-7a(5H)-yl)methoxy)-5-fluoro-2-methyl-2H-pyrazolo[4,3-]quinazolin-4-yl)-5-ethynyl-6-fluoronaphthalen-2-ol]
GDP-KRAS G12D (ΔTmD, ° C.) [1]: 17.61 °C | GppNHp-KRAS G12D (ΔTmD, ° C.) [2]: 13.02 °C

C#Cc1c(F)ccc2cc(O)cc(-c3c(F)c4nc(OC[C@@]56CCCN5C[C@H](F)C6)nc(N5[C@@H]6CC[C@H]5CNC6)c4c4cn(C)nc34)c12 [Example 103, 4-(9-((1 R,5S)-3,8-diazabicyclo[3.2.1]octan-8-yl)-5-fluoro-7-(((2R,7aS)-2-fluorotetrahydro-1H-pyrrolizin-7a(5H)-yl)methoxy)-2-methyl-2H-pyrazolo[4,3-n]quinazolin-4-yl)-5-ethynyl-6-fluoronaphthalen-2-ol]
GDP-KRAS G12D (ΔTmD, ° C.) [1]: 14.80 °C | GppNHp-KRAS G12D (ΔTmD, ° C.) [2]: 11.59 °C

C#Cc1c(F)ccc2cc(O)cc(-c3cc4nc(OC[C@@]56CCCN5CC(=C(F)F)C6)nc(N5[C@@H]6CC[C@H]5CNC6)c4n4ccnc34)c12 [Example 106, 4-(1-((1 R,5S)-3,8-diazabicyclo[3.2.1]octan-8-yl)-3-(((S)-2-(difluoromethylene)tetrahydro-1H-pyrrolizin-7a(5H)-yl)methoxy)imidazo[1′,2′:1,6]pyrido[3,2-d]pyrimidin-6-yl)-5-ethynyl-6-fluoronaphthalen-2-ol]
GDP-KRAS G12D (ΔTmD, ° C.) [1]: 10.21 °C | GppNHp-KRAS G12D (ΔTmD, ° C.) [2]: 6.65 °C

CCc1c(F)ccc2cc(O)cc(-c3cc4nc(OC[C@@]56CCCN5CC(=C(F)F)C6)nc(N5[C@@H]6CC[C@H]5CNC6)c4n4ccnc34)c12 [Example 107, 4-(1-((1 R,5S)-3,8-diazabicyclo[3.2.1]octan-8-yl)-3-(((S)-2-(difluoromethylene)tetrahydro-1H-pyrrolizin-7a(5H)-yl)methoxy)imidazo[1′,2′:1,6]pyrido[3,2-d]pyrimidin-6-yl)-5-ethyl-6-fluoronaphthalen-2-ol]
GDP-KRAS G12D (ΔTmD, ° C.) [1]: 8.91 °C | GppNHp-KRAS G12D (ΔTmD, ° C.) [2]: 4.32 °C

C#Cc1c(F)ccc2cc(N)cc(-c3cc4nc(OC[C@@]56CCCN5CC(=C(F)F)C6)nc(N5[C@@H]6CC[C@H]5CNC6)c4n4ccnc34)c12 [Example 108, 4-(1-((1 R,5S)-3,8-diazabicyclo[3.2.1]octan-8-yl)-3-(((S)-2-(difluoromethylene)tetrahydro-1H-pyrrolizin-7a(5H)-yl)methoxy)imidazo[1′,2′:1,6]pyrido[3,2-d]pyrimidin-6-yl)-5-ethynyl-6-fluoronaphthalen-2-amine]
GDP-KRAS G12D (ΔTmD, ° C.) [1]: 8.47 °C | GppNHp-KRAS G12D (ΔTmD, ° C.) [2]: 5.36 °C

CCc1c(F)ccc2cc(O)cc(-c3cc4nc(OC[C@@]56CCCN5CC(=C(F)F)C6)nc(N5C[C@H]6CC[C@@H](C5)N6)c4n4ccnc34)c12 [Example 109, 4-(1-((1 R,5S)-3,8-diazabicyclo[3.2.1]octan-3-yl)-3-(((S)-2-(difluoromethylene)tetrahydro-1H-pyrrolizin-7a(5H)-yl)methoxy)imidazo[1′,2′:1,6]pyrido[3,2-d]pyrimidin-6-yl)-5-ethyl-6-fluoronaphthalen-2-ol]
GDP-KRAS G12D (ΔTmD, ° C.) [1]: 10.51 °C | GppNHp-KRAS G12D (ΔTmD, ° C.) [2]: 4.28 °C
